System: Haemophilus influenzae serotype b
Experiment: PRP production in liquid garden pea peptone-based culture medium as a function of heme source (sandwich ELISA on supernatant)
Format: cell-based
Settings: for Mean PRP / PRP in mg/l Assay 1 / PRP in mg/l Assay 2: garden pea medium, 16 h
Method: The production of PRP obtained after 16 hours of bacterial culture in liquid plant peptones-based culture media in which the heme source was either hemin or protoporphyrin IX of animal origin (porcine protoporphyrin) in disodium salt form, or protoporphyrin IX of purely synthetic origin in disodium salt form was compared. […] An enzymatic hydrolysate of garden pea peptone provided by Kerry (Hy pea 7404) and a wheat peptone provided by Organotechnie (19559) were tested at a concentration in the culture medium equivalent to 0.87 g/l of protein nitrogen. By reference to the current methods for the production of PRP, PRP production was also measured in a medium that contains a peptone of animal origin, such as casein hydrolysate (HAC) provided by Solabia at a concentration in the medium equivalent to 0.87 g/l with increased concentrations of hemin (see table III).
1.1) Preparation of the Media • 1.1.1. Stock solution of β-NAD (Fluka) at 1 g/l in water which was ultrafiltered and then sterilized by filtration through 0.22 μm. • 1.1.2. Stock solution of hemin (Sigma) at 0.25 g/l in water was ultrafiltered, comprising 5 ml of 25% aqueous ammonia (Cooper) to aid dissolution. The stock solution was sterilized by filtration through 0.22 μm. • 1.1.3. Stock solution of porcine protoporphyrin IX (Sigma) at 0.25 g/l in ultrafiltered water comprising 5 ml of 25% aqueous ammonia (Cooper) in order to facilitate the dissolution. The stock solution was sterilized by filtration through 0.22 μm. • 1.1.4. Stock solution of synthetic protoporphyrin IX at 0.25 g/l in ultrafiltered water comprising 5 ml of 25% aqueous ammonia (Cooper) in order to facilitate the dissolution. The stock solution was also heated to 80° C. in a water bath with stirring in order to complete the dissolution before being sterilized by filtration through 0.22 μm. The protoporphyrin IX, in disodium salt form, was synthesized according to the method described in the U.S. provisional patent application Ser. No. 12/057,574, filed Mar. 28, 2008 and application Ser. No. 60/943,735 and filed on Jun. 13, 2007 using the steps which are described in scheme 2. • The stock solutions of hemin and protoporphyrin IX were checked for their respective contents of active compounds after sterilizing filtration. The protoporphyrin IX and hemin contents were determined by Reversed Phase High Performance Liquid Chromatography (RP-HPLC). The chromatographic chain comprises a twin head pump module allowing the formation of a binary gradient, a programmable automatic injector, a diode array UV detector and a chromatographic column of the type Synergi 4 μm, Polar RP-80A (150×4.6) mm, ref 00F-4336-E0, Phenomenex. • The stock solution of hemin (Sigma) to be checked after filtration was diluted ⅓ in distilled water. The stock solutions of porcine protoporphyrin IX (Sigma) and of synthetic protoporphyrin IX to be checked after filtration were diluted ¼ in distilled water. In parallel, a calibration series was prepared in ammoniated water ranging from 0.025 g/l to 0.125 g/l of protoporphyrin IX from porcine protoporphyrin IX from Sigma (ref: 25838-5) and a calibration series ranging from 0.050 g/l to 0.150 g/l of hemin from hemin from Sigma (ref: H5533-256). The samples to be checked and the various solutions of the calibration series were injected in a volume of 20 μl (for the hemin solutions and samples) and of 5 μl (for the protoporphyrin IX solutions and samples). The initial mobile phase consisting of a volume for volume mixture of acetonitrile and 10 mM KH2PO4 pH 2.5 is set at a flow rate of 1 ml/min. A discontinuous gradient was then produced from this mobile phase in order to separate the molecules of interest which are detected at a wavelength of 400 nm. […]

C=CC1=C(C)c2cc3[n-]c(cc4nc(cc5[n-]c(cc1n2)c(C)c5CCC(=O)O)C(CCC(=O)O)=C4C)c(C)c3C=C.[Cl-].[Fe+3] [Hemin, hemin, reference compound]
Mean PRP (hemin 11.8 μg/l): 4 mg/L | PRP in mg/l Assay 1 (hemin 11.8 μg/l): 3.82 mg/L | PRP in mg/l Assay 2 (hemin 11.8 μg/l): 3.79 mg/L | Mean PRP (hemin 59 μg/l): 7 mg/L | PRP in mg/l Assay 1 (hemin 59 μg/l): 7.61 mg/L | PRP in mg/l Assay 2 (hemin 59 μg/l): 7.13 mg/L | Mean PRP (hemin 118 μg/l): 20 mg/L | PRP in mg/l Assay 1 (hemin 118 μg/l): 23.4 mg/L | PRP in mg/l Assay 2 (hemin 118 μg/l): 17.5 mg/L | Mean PRP (hemin 295 μg/l): 48 mg/L | PRP in mg/l Assay 1 (hemin 295 μg/l): 51.2 mg/L | PRP in mg/l Assay 2 (hemin 295 μg/l): 45.4 mg/L | Mean PRP (hemin 590 μg/l): 84 mg/L | PRP in mg/l Assay 1 (hemin 590 μg/l): 95.4 mg/L | PRP in mg/l Assay 2 (hemin 590 μg/l): 72.9 mg/L | Mean PRP (hemin 1180 μg/l): 233 mg/L | PRP in mg/l Assay 1 (hemin 1180 μg/l): 234 mg/L | PRP in mg/l Assay 2 (hemin 1180 μg/l): 232 mg/L | Mean PRP (hemin 1770 μg/l): 210 mg/L | PRP in mg/l Assay 1 (hemin 1770 μg/l): 209 mg/L | PRP in mg/l Assay 2 (hemin 1770 μg/l): 211 mg/L | Mean PRP (hemin 2360 μg/l): 494 mg/L | PRP in mg/l Assay 1 (hemin 2360 μg/l): 505 mg/L | PRP in mg/l Assay 2 (hemin 2360 μg/l): 482 mg/L | Mean PRP (hemin 3540 μg/l): 142 mg/L | PRP in mg/l Assay 1 (hemin 3540 μg/l): 129 mg/L | PRP in mg/l Assay 2 (hemin 3540 μg/l): 154 mg/L | heme source concentration required for optimum / maximum PRP production (garden pea peptone medium (FIG. 1)): about 2500 μg/l | production of PRP (in words) (plant peptone medium, heme source at 10 μg/l): insignificant | production of PRP (plant peptone medium, heme source at 50 μg/l (FIGS. 1 and 2)): ≤ 10 µg/L
